Experimental data published in patent US12589071B2, “Suckable and/or melt-in-mouth tablet based on hyaluronic acid and chondroitin sulphate and salts thereof” (SOFAR SWISS SA, priority 2017, dated 2026).

Test system: patients with a first diagnosis of GERD with extraesophageal (upper) symptoms
Assay: Randomised open-label clinical study, Experimental Part (II): RSI (Reflux Symptom Index) questionnaire
Type: in vivo, human
Excerpt: The aim of the present study was to assess, in patients who, at the first diagnosis, presented with extraesophageal symptoms associated with gastroesophageal reflux disease (GERD), the effect of a 6-week treatment with the composition C1 comprising a chondroitin sulphate, a hyaluronic acid or a salt thereof and an aluminium hydroxide, in combination with a treatment with proton pump inhibitors (PPI) versus treatment with PPIs alone; i.e. to verify the reduction in the frequency of symptoms in patients by means of the Likert questionnaire, and the severity of upper symptoms, by means of the RSI (Reflux Symptom Index) questionnaire, and to assess Responders and Non-Responders in the two groups of patients after 6 weeks of treatment versus the baseline.
The multi-centre prospective, randomised, open-label clinical study, with two parallel arms of treatment, followed by the FU period, provided for the treatment, for 6 weeks, of 78 patients diagnosed for the first time, who presented with upper symptoms ascribable to a diagnosis of GERD, in the presence/absence of typical symptoms. The patients were thus randomly assigned, on an open-label basis, in a 1:1 ratio: • 39 patients were treated with C1+PPIs (omeprazole) for 6 weeks; and • 39 patients were treated only with a PPI (omeprazole) for 6 weeks. […]
On these occasions patients filled out the RSI questionnaire, for the assessment of the severity of symptoms, and the Likert scale, for the assessment of the reduction in the frequency of symptoms. […] In this period, only the use of omeprazole (PPI), at a constant dosage, was allowed, according to the indications of the investigator, both to the patients included in the untreated group and in the treatment group, as a rescue medication to control symptoms and safety data were assessed. […]

**Q.** What does the source list for `COc1ccc2[nH]c([S+]([O-])Cc3ncc(C)c(OC)c3C)nc2c1` (stereo not drawn) [PPI, omeprazole]?
**A.** MEAN of DELTA RSI per treatment group (V4 (6 weeks) versus baseline V1, N 28 (C1 + PPI), N 36 (PPI)): −13.69; DELTA (RSI V4 versus RSI V1, individual subject) (after 6 weeks of treatment versus baseline, one line per subject, preliminary, listed as IPPI): −11; RSI V4 (individual subject score) (examination V4 after 6 weeks of treatment, one line per subject, preliminary, listed as IPPI): 13
